Test results: patent US10080366B2, “Agent for increasing sugar content in fruit” (RIKEN, priority 2012, dated 2018)
Like-named read-outs stand apart in the source and are kept apart here.

What was measured:
Tomato (Regina) = details: 10 g/L, three times at intervals of one week
Procedure: (§1) To each of the plants shown in Table 15 below, an aqueous potassium hydrogen carbonate solution (10 g/L) was applied three times at intervals of one week about one month before the harvest time. Each of the plants was harvested four weeks later. The degree of the fruit cracking of the fruit was compared with that of untreated fruit, and a fruit cracking-suppression ratio was determined. […] The fruit cracking ratio (%)=the number of pieces of the fruit which underwent fruit cracking/the total number of pieces of the fruit×100 The fruit cracking-suppression ratio (%)=(1−the fruit cracking ratio (%) of a treated group/the fruit cracking ratio (%) of an untreated group)×100

Cherry (Sato Nishiki) [1] = details: 10 g/L, three times at intervals of one week; harvested four weeks later
Procedure: as §1

[2] = test system: Grape (Nagano Purple), Grape (Riesling); details: 10 g/L, three times at intervals of one week
Procedure: as §1

[3] = test system: harvested fruit of grape (variety: Barikan); details: for Sugar content (%) on date of application (Jun. 2): before application
Procedure: The fruit of grape was maintained in an air-conditioned greenhouse (temperature: 25° C.), and measured for the mass over time. The sugar content of the fruit was measured before the application and 8 days after the application with a sugar content meter. Next, on the assumption that the change in the mass of the fruit was entirely due to the change in water content, calculated values of the amount of decrease in mass and the sugar content on the date (June 2) of the application were determined […] by using the following calculation formula. (Calculated as follows: the sugar content (%) calculated value))=the sugar content (%) before application×the mass (g) on the date of application/the mass (g) on the date of measurement))

Cherry (Sato Nishiki) [4] = details: 5 g/L, three times at intervals of 7 days; 28 days after first application
Text: The water-soaked symptom in cherry is known to be caused by calcium deficiency. In this respect, an investigation was made as to whether or not the degree of occurrence of water-soaked symptom 28 days after the date of the first application was different between untreated cherries and cherries to which an aqueous potassium hydrogen carbonate solution (5 g/L) was applied three times at intervals of 7 days one month before the harvest time. […] The occurrence (%) of water-soaked symptom=the number of cherries in which the water-soaked symptom occurred/the number of cherries tested×100

Lettuce (Great Lakes) = details: 10 g/L aqueous solution at intervals of one week; browning index 0-5, five plants
Text: (§2) In general, calcium deficiency in lettuce and celery occurs from summer to fall. Heart rot symptom develops in lettuce, and change in color and blackening of new leaves develop in celery. In addition, tipburn may also occur in lettuce. A 10 g/L aqueous potassium hydrogen carbonate solution was applied at intervals of one week to lettuce and celery in which no symptom of calcium deficiency had yet developed, and whether or not the symptom became milder than that of an untreated group was observed. Five plants were subjected to each treatment, and the degree of the symptom of calcium deficiency was determined on the basis of the degree of browning of leaves at the harvest.
(§3) 0: no browning, 0.5: browning occurred only in very small portions on the edges of leaves, 1.0: browning occurred in portions on the edges of […], 2.0: browning occurred from edges of leaves to the inside, 3.0: the degree of browning was considerable, 5.0: the browning of leaves was remarkable. Degree of occurrence=(Index 5×the number of plants in which the corresponding blowing occurred+Index 3×the number of plants in which the corresponding blowing occurred+Index 2×the number of plants in which the corresponding blowing occurred+Index 1×the number of plants in which the corresponding blowing occurred+Index 0.5×the number of plants in which the corresponding blowing occurred)/5 plants

Celery = details: 10 g/L aqueous solution at intervals of one week; browning index 0-5, five plants
Text: as §2, §3

Tomato = details: dilution ratio 100 (10 g/L); 6 days after treatment
[5] = test system: fruit of grape (variety: Red Globe)
Procedure: An agent for increasing a sugar content in a fruit (containing Sorbon T-20 as a spreader/sticker at a final concentration of 200 μL/L) diluted with water to have a potassium hydrogen carbonate concentration of 10 g/L was prepared. The mass of fruit of grape (variety: Red Globe) purchased on the market was measured. Then, the prepared agent for increasing a sugar content in a fruit was applied by spraying to the fruit of grape. Then, the fruit of grape was allowed to stand in an air-conditioned greenhouse (temperature: 25° C.), and the mass was measured over time (date of application: Apr. 27, 2011; dates of test: May 2, 2011, May 6, 2011, May 9, 2011, May 11, 2011, May 13, 2011, and May 16, 2011). In addition, as a control, the mass of untreated grape was measured on each date of measurement in the same manner.
On the basis of the measured mass, the estimated amount (cumulative value) of transpiration and the estimated amount of transpiration per day were calculated. The results are shown in Tables 5 and 6 and FIGS. 10 and 11.
Note that the vertical axis in FIG. 10 represents the mass (g) of the fruit of grape on each of the dates of measurement per 100 g of the fruit of grape on the date of application, and the vertical axis in FIG. 11 represents the estimated amount (g) of transpiration on each of the dates of measurement per 100 g of the fruit of grape on the date of application. The estimated amount (g) of transpiration on each of the dates of measurement per 100 g of the fruit of grape on the date of application=(the mass (g) of the fruit of grape on the date of application−the mass (g) of the fruit of grape on the date of measurement)/the mass of the fruit of grape on the date of application×100

Mikan = details: dilution ratio 100 (10 g/L); 6 days after treatment
[6] = 10 g/L, 25° C., mass 100 g on date of application
[7] = approximately 3 weeks later (19 days later)

O=C([O-])O.[K+] [Potassium hydrogen carbonate, potassium hydrogen carbonate]
Fruit cracking-suppression ratio (Tomato (Regina)): 95% | Fruit cracking-suppression ratio (Cherry (Sato Nishiki) [1]): 98% | Fruit cracking-suppression ratio ([2]; Nagano Purple): 97% | Fruit cracking-suppression ratio ([2]; Riesling): 98% | decrease of mass of fruit in 8 days (June 2 to June 10) ([3]; 10 g/L): 27.3% | Sugar content (%) 8 days later, actually measured value ([3]; 10 g/L, 25° C.): 24.0% | Sugar content (%) 8 days later, actually measured value ([3]; 10 g/L, 25° C., listed as potassium hydrogen carbonate): 24% | Mass (g) 6 days later (Jun. 8) [3, 6]: 79.4 g | Mass (g) 8 days later (Jun. 10) [3, 6]: 72.7 g | Sugar content (%) 8 days later, calculated value ([3]; 10 g/L, calculated from decrease in mass): 24.8% | Sugar content (%) on date of application (Jun. 2) [3]: 18.0% | Sugar content (%) on date of application (Jun. 2) ([3]; listed as potassium hydrogen carbonate): 18% | Occurrence (%) of water-soaked symptom (Cherry (Sato Nishiki) [4]): 7% | Degree of occurrence of calcium deficiency (Lettuce (Great Lakes)): 0.2 | Degree of occurrence of calcium deficiency (Celery): 0.3 | Ratio (%) of decrease in body weight of fruit (Tomato): 14.8% | Estimated amount (g) of transpiration per 100 g of fruit on date of application ([5]; 5 days later): 17.4 g | Mass (g) of fruit per 100 g of fruit on date of application ([5]; 5 days later (applied Apr. 27)): 82.6 g | Estimated amount (g) of transpiration per 100 g of fruit on date of application ([5]; 9 days later): 29.5 g | Mass (g) of fruit per 100 g of fruit on date of application ([5]; 9 days later): 70.5 g | Estimated amount (g) of transpiration per 100 g of fruit on date of application ([5]; 12 days later): 37.2 g | Mass (g) of fruit per 100 g of fruit on date of application ([5]; 12 days later): 62.8 g | Estimated amount (g) of transpiration per 100 g of fruit on date of application ([5]; 14 days later): 42.6 g | Mass (g) of fruit per 100 g of fruit on date of application ([5]; 14 days later): 57.4 g | Estimated amount (g) of transpiration per 100 g of fruit on date of application ([5]; 16 days later): 47.9 g | Mass (g) of fruit per 100 g of fruit on date of application ([5]; 16 days later): 52.1 g | Estimated amount (g) of transpiration per 100 g of fruit on date of application ([5]; 19 days later): 55.3 g | Mass (g) of fruit per 100 g of fruit on date of application ([5]; 19 days later): 44.7 g | mass as % of the mass on the date of application [5, 7]: 44.7% | ratio of transpiration of the fruit [5, 7]: 55.3% | Ratio (%) of decrease in body weight of fruit (Mikan): 12.6%
